# Measured values taken from publication PMC11212260, “Next-generation neuropeptide Y receptor small-molecule agonists inhibit mosquito-biting behavior” (Parasites & Vectors, 2024).
# Values joined by “and” are separate entries in the source; they are usually repeats but may differ in a detail not shown here. Equal values may be shown once. Read-outs that look alike come from different tables or passages of the source. Where a SMILES comes first, the peptide text is derived from it.
# Tests used:
# Ae. aegypti NPYLR7 = Ae. aegypti NPYLR7 (Aedes aegypti, UniProt U5N1H5); assay: In vitro calcium (GCaMP6s) FLIPR assay in HEK293T cells transfected with NPYLR7; format: cell-based; conditions: for RFU: assay date 1/11/20 plate 1, duplicate wells
# Chain of Ae. aegypti NPYLR7 (U5N1H5 entry or part of it): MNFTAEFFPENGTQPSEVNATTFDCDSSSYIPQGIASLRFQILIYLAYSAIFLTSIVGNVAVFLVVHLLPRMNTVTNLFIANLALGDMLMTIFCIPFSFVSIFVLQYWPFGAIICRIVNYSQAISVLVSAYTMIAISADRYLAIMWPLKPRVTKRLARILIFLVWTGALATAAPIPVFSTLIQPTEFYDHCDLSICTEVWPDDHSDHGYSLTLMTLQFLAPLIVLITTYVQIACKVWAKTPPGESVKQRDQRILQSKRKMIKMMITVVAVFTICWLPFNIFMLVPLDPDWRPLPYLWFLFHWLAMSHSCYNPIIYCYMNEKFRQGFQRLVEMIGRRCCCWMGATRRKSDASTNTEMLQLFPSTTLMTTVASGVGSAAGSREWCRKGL
# Experimental: The in vitro screening assay was adapted from, and carried out at HD Biosciences (HDB, Shanghai) as follows: HEK293T (Thermo Fisher Scientific) cells were grown in Dulbecco’s modified Eagle medium (DMEM) (high glucose, with glutamine), 10% fetal bovine serum, 1% penicillin–streptomycin (Pen/Strep), seeded in a 75 cm^2 flask, and incubated at 37 °C and 5% CO2. Cells were transiently transfected with 1 μg of each plasmid expressing GCaMP6s (Addgene […]) (Chen et al., 2013), mouse Gqα15 (Addgene #40753) (Offermanns and Simon, 1995) and Ae. aegypti NPYLR7 (Addgene #52392) (Duvall et al. 2019) using Lipofectamine 2000 (Invitrogen) in 4 ml of Opti-MEM (Invitrogen). This mixture was added to a plate after 20 min and incubated for 6–8 h. Cells were then trypsinized, resuspended in phenol-free media, and plated in a 384-well plate (Greiner Bio-One) at a density of 20,000 cells per 40 μl, and incubated overnight (37 °C, 5% CO2). Cells were imaged directly in phenol-free media. Plates were loaded into a Molecular Devices fluorescence imaging plate reader (FLIPR) with an excitation wavelength of 470–495 nm and an emitted wavelength of 515–575 nm. Plates were imaged every second for 5 min. After 30 s of baseline fluorescence recording, 10 μl of the test compound in reading buffer [Hank’s Balanced Salt Solution (Gibco) + 20 mM HEPES (Sigma-Aldrich)] was added. Concentrations tested ranged from 0 to 100 μM. Data were collected in raw fluorescence units (RFU).
# Each test plate included replicates of 10 μM FMRFa3 (H‐Ala‐Gly‐Gln‐Gly‐Phe‐Met‐Arg‐Phe‐NH2), an Ae. aegypti neuropeptide agonist of NPYLR7 used to calculate the hundred percent effect (HPE). The zero percent effect (ZPE) control was calculated as a response to buffer alone. The Z′ factor was calculated for each plate by Z^′=1-3σHPE+3σZPE/|μHPE-μZPE| . Plates with Z′ < 0.5 were excluded from analysis. Raw fluorescence units (RFU) were converted to percent effect relative to the average of the ZPE and HPE. Percent effect = (sample luminescence − average ZPE)/(average HPE − average ZPE)×100. […] Each replicate was plotted as percent effect versus log[concentration], and replicates with maximal responses between 20 and 250% were used for EC50 calculations. Relative EC50 was calculated using an [Agonist] versus response–variable slope four-parameter model where Y=Bottom+(X^Hillslope)∗(Top-Bottom)/(X^HillSlope+EC50^HillSlope) . For compounds with multiple replicates, the relative EC50 of each replicate was averaged.
# [1] = test system: Aedes aegypti (Orlando strain) females; assay: Host-seeking screening assay (miniport olfactometer); format: in vivo; conditions: fed 1 μM in saline, tested 48 h post-meal; per-compound value of Fig. 3C
# Experimental: Groups of 60–150 females were placed in bucket cages with a diameter of 21.6 cm and height of 16.5 cm (VWR) and fasted with access to water for 24 h prior to feeding. Meals were delivered to females via Glytube membrane feeders as described previously. Meals consisted of 1.5 ml sheep blood (HemoStat Laboratories), saline (400 mM NaHCO3 + dih2O), or saline and test compound. Lyophilized compounds were stored at room temperature until use. High-concentration stocks (30 mM in 100% dimethyl sulfoxide [DMSO]) (Sigma-Aldrich) were stored at −20 °C and diluted in saline immediately prior to feeding. Once prepared, meals and glycerol heating elements were warmed in a 42 °C water bath for 15 min to provide warmth to attract mosquitos to feed. ATP (1 mM final concentration) and test compounds (1 μM final concentration) were added prior to placing the meal on top of the mesh on the cage containing female mosquitos. Females were allowed 15–20 min to feed to repletion. Abdominal engorgement was scored by eye and confirmed by weighing females to ensure full feeding (Data S1). […] Females were returned to their original cage with a diH2O wick for 48 h prior to behavioral testing. The lethality of each compound was measured by counting the number of dead females in each cage 24 h post-meal.
# Miniport olfactometers were fabricated in-house as described previously. Information regarding design, construction, and use can be found at https://github.com/VosshallLab/Miniport-Construction. Miniport canisters consisted of a 6″ × 3″ × 3″ acrylic tube with a mesh screen to allow for air flow. Groups of 10–20 females were loaded into canisters 24 h post-meal. Females were left in canisters overnight to acclimate with two cotton balls soaked in diH20 to prevent desiccation. Behavior trials began 48 h post-meal. Canisters were randomly assigned to attraction traps 1–4 and given 5 min to acclimate. The stimulus end of the trap was connected to a flowmeter that supplied 5% CO2 at a rate of 30 ml/min. Thirty seconds of CO2 flow was supplied to activate females prior to opening the sliding door. Once opened, the sliding door gave females access to the attraction trap baited with a human-scented nylon stocking previously worn by the same experimenter for 8–10 h to collect body odor and stored in a plastic bag at −20 °C until use. After 5 min, the sliding door was closed and attraction was scored as mosquitoes in the attraction trap/total number of mosquitoes. For each experiment data were normalized to the matched average saline attraction from the same experiment (% attracted/average saline attraction). Any dead mosquitoes were excluded from the analysis. Non-fed females and blood-fed females served as environmental control groups while the saline-fed females served as the vehicle control each day. If non-fed or saline-fed females were less than 50% attracted or if blood-fed females were more than 20% attracted behavioral trials were halted and all data from that experimental day were discarded.
# [2] = Figure 1E Summary, third list (n = 39), read-out: Reported Metric (Summary list)
# [3] = Figure 1E, EC50 of the single assay date/plate, read-out: EC50
# [4] = Figure 1E, metric reported per compound, repeated on every replicate line, read-out: Reported Metric (EC50)
# [5] = relative EC50, percent effect relative to 10 μM FMRFa3, read-out: EC50
compound,measurement,setting,value
CSCC[C@H](NC(=O)[C@H](Cc1ccccc1)NC(=O)CNC(=O)[C@H](CCC(N)=O)NC(=O)CNC(=O)[C@H](C)N)C(=O)N[C@@H](CCCNC(=N)N)C(=O)N[C@@H](Cc1ccccc1)C(N)=O [FMRF3a] (H-AGQGFMRF-NH2),response at 0.0017(uM),"Ae. aegypti NPYLR7; 0.0017 uM, single replicate, normalised response",2.545
same,response at 0.0051(uM),"Ae. aegypti NPYLR7; 0.0051 uM, single replicate, normalised response",-0.01361
same,EC50,"Ae. aegypti NPYLR7; EC50 (uM), EC50 of the individual assay date/plate (assay date)",2.4 µM and 3.76 µM and 1.51 µM and 8.78 µM and 4.23 µM and 2.6 µM and 8.21 µM and 1.15 µM and 4.22 µM and 4.26 µM
same,EC50,"Ae. aegypti NPYLR7; Reported Metric, summary EC50 per compound (mean over assay dates), the unit is taken from the neighbouring EC50 (uM) column",4.11 µM
"CSCC[C@H](NC(=O)[C@H](Cc1ccccc1)NC(=O)CNC(=O)[C@H](CCC(N)=O)NC(=O)CNC(=O)[C@H](C)N)C(=O)N[C@@H](CCCNC(=N)N)C(=O)N[C@@H](Cc1ccccc1)C(N)=O [FMRFa3, H‐Ala‐Gly‐Gln‐Gly‐Phe‐Met‐Arg‐Phe‐NH2, reference compound] (H-AGQGFMRF-NH2)",RFU,"Ae. aegypti NPYLR7; 0.00169350878084303uM, listed as FMFR3a",65 RFU and 68 RFU
same,RFU,"Ae. aegypti NPYLR7; 0.00508052634252909uM, listed as FMFR3a",68 RFU and 63 RFU
same,RFU,"Ae. aegypti NPYLR7; 0.0152415790275873uM, listed as FMFR3a",60 RFU and 54 RFU
same,RFU,"Ae. aegypti NPYLR7; 0.0457247370827618uM, listed as FMFR3a",68 RFU and 57 RFU
same,RFU,"Ae. aegypti NPYLR7; 0.137174211248285uM, listed as FMFR3a",60 RFU and 61 RFU
same,RFU,"Ae. aegypti NPYLR7; 0.411522633744856uM, listed as FMFR3a",69 RFU and 63 RFU
same,RFU,"Ae. aegypti NPYLR7; 1.23456790123457uM, listed as FMFR3a",164 RFU and 112 RFU
same,RFU,"Ae. aegypti NPYLR7; 3.7037037037037uM, listed as FMFR3a",199 RFU and 204 RFU
same,RFU,"Ae. aegypti NPYLR7; 11.1111111111111 uM, listed as FMFR3a",247 RFU and 275 RFU
same,RFU,"Ae. aegypti NPYLR7; 33.333333 uM, listed as FMFR3a",320 RFU and 317 RFU
same,RFU,"Ae. aegypti NPYLR7; 100 uM, listed as FMFR3a",354 RFU and 310 RFU
Cc1nc(NC(=N)N)nc2cc(OC(F)(F)F)ccc12 [TDI-012613],EC50,Ae. aegypti NPYLR7; [2],3.38 µM
same,EC50,Ae. aegypti NPYLR7; [3],5.42 µM and 1.34 µM
same,EC50,Ae. aegypti NPYLR7; [4],3.38 µM
same,activation at 11.1111 µM,"Ae. aegypti NPYLR7; HEK-293T, compound 11.1111 uM, single replicate well, read-out: response at 11.1111",43.1%
same,activation at 33.3333 µM,"Ae. aegypti NPYLR7; HEK-293T, compound 33.3333 uM, single replicate well, read-out: response at 33.3333",69.7%
same,EC50,Ae. aegypti NPYLR7; [5],3.38 µM
Cc1nc(NC(=N)N)nc2cc(OC(F)F)ccc12 [TDI-012615],RFU,"Ae. aegypti NPYLR7; 0.00169350878084303uM, listed as TDI-012615-NX-1",74 RFU and 66 RFU
same,RFU,"Ae. aegypti NPYLR7; 0.00508052634252909uM, listed as TDI-012615-NX-1",74 RFU and 63 RFU
same,RFU,"Ae. aegypti NPYLR7; 0.0152415790275873uM, listed as TDI-012615-NX-1",71 RFU and 60 RFU
same,RFU,"Ae. aegypti NPYLR7; 0.0457247370827618uM, listed as TDI-012615-NX-1",57 RFU and 73 RFU
same,RFU,"Ae. aegypti NPYLR7; 0.137174211248285uM, listed as TDI-012615-NX-1",57 RFU and 91 RFU
same,RFU,"Ae. aegypti NPYLR7; 0.411522633744856uM, listed as TDI-012615-NX-1",153 RFU and 157 RFU
same,RFU,"Ae. aegypti NPYLR7; 1.23456790123457uM, listed as TDI-012615-NX-1",207 RFU and 271 RFU
same,RFU,"Ae. aegypti NPYLR7; 3.7037037037037uM, listed as TDI-012615-NX-1",247 RFU and 267 RFU
same,RFU,"Ae. aegypti NPYLR7; 11.1111111111111 uM, listed as TDI-012615-NX-1",339 RFU and 333 RFU
same,RFU,"Ae. aegypti NPYLR7; 33.333333 uM, listed as TDI-012615-NX-1",353 RFU and 317 RFU
same,RFU,"Ae. aegypti NPYLR7; 100 uM, listed as TDI-012615-NX-1",434 RFU and 405 RFU
same,EC50,Ae. aegypti NPYLR7; [2],1.62 µM
same,EC50,Ae. aegypti NPYLR7; [3],1.31 µM and 1.93 µM
same,EC50,Ae. aegypti NPYLR7; [4],1.62 µM
same,EC50,Ae. aegypti NPYLR7; [5],1.62 µM
same,Attraction (relative to saline),[1],0.94
